According to ChEMBL document CHEMBL2086338, “Design, synthesis, and evaluation of 2-substituted ethenesulfonic acid ester derivatives as protein tyrosine phosphatase 1B inhibitors” (Eur J Med Chem, 2012):

Legend:
[1] = target: T1, Tyrosine-protein phosphatase non-receptor type 2 (Homo sapiens, UniProt P17706); experiment: Inhibition of human recombinant TCPTP assessed as inhibition of hydrolysis of […] after 10 mins by spectrophotometry
T1 sequence (P17706 whole entry): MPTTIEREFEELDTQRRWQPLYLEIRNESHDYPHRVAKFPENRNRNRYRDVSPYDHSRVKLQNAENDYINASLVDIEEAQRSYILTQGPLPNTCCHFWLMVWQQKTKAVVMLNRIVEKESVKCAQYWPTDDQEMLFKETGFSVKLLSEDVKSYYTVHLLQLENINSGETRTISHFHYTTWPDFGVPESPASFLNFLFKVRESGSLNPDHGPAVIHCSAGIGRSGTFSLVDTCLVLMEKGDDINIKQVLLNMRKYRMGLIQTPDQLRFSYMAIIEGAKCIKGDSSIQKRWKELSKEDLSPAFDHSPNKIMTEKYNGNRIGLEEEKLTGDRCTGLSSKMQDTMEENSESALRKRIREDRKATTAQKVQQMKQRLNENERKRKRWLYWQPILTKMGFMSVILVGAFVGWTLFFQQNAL

Homo sapiens = organism: Homo sapiens; experiment: Selectivity ratio of IC50 for human recombinant TCPT to IC50 for human recombinant PTP1B
[2] = target: T2, Tyrosine-protein phosphatase non-receptor type 1 (Homo sapiens, UniProt P18031); experiment: Inhibition of human recombinant PTP1B assessed as inhibition of hydrolysis of […] after 10 mins by spectrophotometry
T2 sequence (P18031 whole entry): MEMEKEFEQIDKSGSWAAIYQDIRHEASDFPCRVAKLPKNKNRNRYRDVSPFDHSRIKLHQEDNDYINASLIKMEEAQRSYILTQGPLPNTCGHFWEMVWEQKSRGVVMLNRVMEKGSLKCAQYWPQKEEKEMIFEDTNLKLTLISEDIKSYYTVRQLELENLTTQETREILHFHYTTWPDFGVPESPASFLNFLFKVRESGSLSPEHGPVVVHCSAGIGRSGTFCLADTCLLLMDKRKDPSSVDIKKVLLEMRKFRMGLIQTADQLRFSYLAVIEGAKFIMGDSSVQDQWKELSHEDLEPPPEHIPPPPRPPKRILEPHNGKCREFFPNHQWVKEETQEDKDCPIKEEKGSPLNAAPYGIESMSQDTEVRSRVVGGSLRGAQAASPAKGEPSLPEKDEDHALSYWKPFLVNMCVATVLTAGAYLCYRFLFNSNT

COS-7 = experiment: Cytotoxicity against african green monkey COS7 cells after 48 hrs by MTT assay; type: cell-based; settings: Chlorocebus aethiops, COS-7, 48 h

SMILES | IC50 [1] [µM] | Ratio IC50 (Homo sapiens) | IC50 [2] [µM] | IC50 (COS-7) [µM]
CCOS(=O)(=O)/C=C/c1ccc(OCCCCNc2nc(-c3cccc4ccccc34)cs2)cc1 | 8.7 | 2 | 2.4 | –
O=S(=O)(O)C(F)(F)c1ccc(-c2cccc(F)c2)cc1 | – | – | 5 | –
CCOS(=O)(=O)/C=C/c1ccc(OCCCCNc2nc(-c3ccccn3)cs2)cc1 | 31.9 | 2 | 1.5 | –
COC(=O)/C=C/c1ccc(/C=C/c2ccc(O)c(O)c2)cc1 | – | – | > 14.9 | –
CCOS(=O)(=O)/C=C/c1ccc(OC)c(OCCCCNc2nc(-c3ccccc3)cs2)c1 | 5.7 | 2 | 3.3 | –
CCOS(=O)(=O)/C=C/c1ccc(OCCCCNc2nc(-c3ccccc3)cs2)cc1 | 26.2 | – | 22 | > 100
CCOS(=O)(=O)/C=C/c1ccc(OCCCCNc2nc(-c3ccc(-c4ccccc4)cc3)cs2)cc1 | 15.7 | 2 | 1.9 | –
CCOS(=O)(=O)/C=C/c1ccc(OCCCCNc2nc(-c3ccccc3Cl)cs2)cc1 | 5 | 2 | 1.4 | –
CCOS(=O)(=O)/C=C/Cc1nc(-c2ccccc2)sc1C | > 100 | – | > 100 | > 100
CCOS(=O)(=O)/C=C/c1ccc(OCCCCNc2nc(-c3ccccc3F)cs2)cc1 | 6.4 | 2 | 2.5 | –
CCOS(=O)(=O)/C=C/c1ccc(OCCCCNc2nc(-c3ccc(Br)cc3)cs2)cc1 | 3.6 | 2 | 1.3 | –
CCOS(=O)(=O)/C=C/c1ccc(OCCCCNc2nc(-c3ccc(F)cc3)cs2)cc1 | 14.1 | 2 | 1.3 | –
CCOS(=O)(=O)/C=C/c1ccc(OCCCCNc2nc(-c3cccc(OC)c3)cs2)cc1 | 8.2 | 2 | 2 | –
CCOS(=O)(=O)/C=C/c1ccc(OCCCCNc2nc(-c3ccc(OC)cc3)cs2)cc1 | > 100 | 2 | 10.4 | –
CCOS(=O)(=O)/C=C/c1ccc(OCCCCNc2nc(-c3cccs3)cs2)cc1 | 11.2 | 2 | 8.6 | –
CCOc1ccc(-c2cc(COc3ccc(/C=C/S(=O)(=O)OCC)cc3)no2)cc1 | > 100 | – | 44.4 | > 100

Now from value to molecule, other results behind:

IC50 [1] [µM] | Ratio IC50 (Homo sapiens) | IC50 [2] [µM] | SMILES | IC50 (COS-7) [µM]
> 100 | – | > 100 | CCOS(=O)(=O)/C=C/c1ccc(OCCc2nc(-c3ccccc3)oc2C)cc1 | 84.1
> 100 | – | > 100 | CCCCOS(=O)(=O)/C=C/c1ccc(OCc2ccccc2)cc1OCCc1nc(-c2ccccc2)oc1C | > 100
> 100 | – | > 100 | CCOS(=O)(=O)/C=C/c1ccc(OCc2ccccc2)cc1OCCc1nc(-c2ccccc2)oc1C | > 100
> 100 | – | 15.1 | CCOS(=O)(=O)/C=C/c1ccc(OCCCCNc2nc(-c3ccccc3)c(C)s2)c(OC)c1 | –
23.4 | – | 9.6 | CCOS(=O)(=O)/C=C/c1ccc(OCCCCNc2nc(-c3ccccc3)c(-c3ccccc3)s2)cc1 | –
8.6 | – | 2.6 | CCOS(=O)(=O)/C=C/c1ccc(OCCCCNc2nc(-c3ccccc3)c(-c3ccccc3)s2)c(OC)c1 | –
41.2 | – | 38.4 | CCOS(=O)(=O)/C=C/c1ccc(OCc2ccccc2)cc1OCCc1csc(-c2ccccc2)n1 | > 100
> 100 | – | > 100 | CCCCOS(=O)(=O)/C=C/c1ccc(OCCc2csc(-c3ccccc3)n2)cc1 | > 100
29.5 | – | 24.8 | CCOS(=O)(=O)/C=C/c1ccc(OCCCNc2nc(-c3ccccc3)cs2)cc1 | > 100
10.6 | – | 5.8 | CCOS(=O)(=O)/C=C/c1ccc(OCCCCNc2nc(-c3ccccc3)c(C)s2)cc1 | –
> 100 | – | > 100 | CCOS(=O)(=O)/C=C/c1ccc(OCCNc2nc(-c3ccccc3)cs2)cc1 | > 100
15.6 | 2 | 9.7 | CCOS(=O)(=O)/C=C/c1ccc(OC)c(OCCCCNc2nc(-c3ccccc3)c(C)s2)c1 | –
> 100 | – | > 100 | CCOS(=O)(=O)/C=C/c1ccc(OCc2ccccc2)cc1OCCc1nc(-c2ccccc2)sc1C | > 100
> 100 | – | > 100 | CCCCOS(=O)(=O)/C=C/c1ccc(OCCc2nc(-c3ccccc3)oc2C)cc1 | > 100
> 100 | – | > 100 | CCOS(=O)(=O)/C=C/c1ccc(OCc2cc(-c3ccccc3)on2)cc1 | > 100
11.6 | 2 | 5.1 | CCOS(=O)(=O)/C=C/c1ccc(OC)c(OCCCCNc2nc(-c3ccccc3)c(-c3ccccc3)s2)c1 | –
39.6 | – | 24.5 | COS(=O)(=O)/C=C/c1ccc(OCc2ccccc2)cc1OCCc1nc(-c2ccccc2)oc1C | > 100
